According to patent publication US6914045B2, “Glycopeptide antibiotics” (Wyeth Holdings Corporation, priority 2001, dated 2005):
Values after ≈ are worked out from the molar mass of the structure shown.

Experiments:
Assay in all cases: in vitro antibacterial evaluation, MIC by broth dilution
Assay type in all cases: cell-based
Enterococcus sp. = settings: broth dilution, 18 hours at 35° C.
In short: (§1)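 Broth dilution per NCCLS M7-A2 in Mueller-Hinton II medium, inoculum 5×10^5 CFU/mL, antibiotic range 64-0.06 μg/mL. MIC taken as lowest concentration inhibiting growth; Gram-positive panel includes recent clinical isolates resistant to methicillin, penicillin and/or vancomycin.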

Staphylococcus sp. = settings: broth dilution, 18 hours at 35° C.; for MIC Staphylococcus aureus (ATCC 29213): strain ATCC 29213; for MIC Staphylococcus aureus (GC 1131): strain GC 1131; for MIC Staphylococcus aureus (GC 3051): strain GC 3051; for MIC Staphylococcus aureus (GC 3053): strain GC 3053; for MIC Staphylococcus aureus (GC 4541): strain GC 4541; for MIC Staphylococcus aureus (GC 4542): strain GC 4542; for MIC Staphylococcus aureus-SMITH (GC 4543): strain GC 4543; for MIC Staphylococcus aureus (GC 4544): strain GC 4544; for MIC Staphylococcus aureus (GC 4545): strain GC 4545; for MIC Staphylococcus haemolyticus (GC 4546): strain GC 4546; for MIC Coagulase Negative Staphylococcus (GC 4547): strain GC 4547; for MIC Coagulase Negative Staphylococcus (GC 4548): strain GC 4548; for MIC Coagulase Negative Staphylococcus (GC 4549): strain GC 4549; for MIC Coagulase Negative Staphylococcus (GC 4551): strain GC 4551
In short: as §1

Streptococcus sp. = settings: broth dilution, 18 hours at 35° C.
In short: as §1

Escherichia coli = settings: 18 hours at 35° C.

CC(C)=CCN1CC(C(O)C2NC(=O)C(C(O)C3CNC(=N)N3)NC(=O)C(Cc3ccc(OC4OC(CO)C(OC5OC6COC7(OC6C(O)C5O)C5CC6CC(C5)CC7C6)C(O)C4O)cc3)NC(=O)C(C(C)c3ccccc3)NC(=O)CNC(=O)C(CO)NC2=O)N(C2OC(CO)C(O)C(O)C2O)C1=N (centres unmarked) [Example 225]
MIC Enterococcus avium (GC 4558) (Enterococcus sp.): 4 µg/mL (≈ 2.67 µM)
MIC Enterococcus faecalis (ATCC 29212) (Enterococcus sp.): 8 µg/mL (≈ 5.35 µM)
MIC Enterococcus faecalis (GC 2242) (Enterococcus sp.): 8 µg/mL (≈ 5.35 µM)
MIC Enterococcus faecalis (GC 2691) (Enterococcus sp.): 16 µg/mL (≈ 10.7 µM)
MIC Enterococcus faecalis (GC 3059) (Enterococcus sp.): 16 µg/mL (≈ 10.7 µM)
MIC Enterococcus faecalis (GC 4552) (Enterococcus sp.): 8 µg/mL (≈ 5.35 µM)
MIC Enterococcus faecalis (GC 4553) (Enterococcus sp.): 4 µg/mL (≈ 2.67 µM)
MIC Enterococcus faecalis (GC 4554) (Enterococcus sp.): 16 µg/mL (≈ 10.7 µM)
MIC Enterococcus faecalis (GC 6189) (Enterococcus sp.): 16 µg/mL (≈ 10.7 µM)
MIC Enterococcus faecium (GC 2243) (Enterococcus sp.): 4 µg/mL (≈ 2.67 µM)
MIC Enterococcus faecium (GC 4556) (Enterococcus sp.): 8 µg/mL (≈ 5.35 µM)
MIC Enterococcus faecium (GC 4557) (Enterococcus sp.): 1 µg/mL (≈ 0.669 µM)
MIC Enterococcus faecalis (ATCC 29212) (Enterococcus sp.; inoculum 5×10^5 CFU/mL, strain ATCC 29212): 8 µg/mL (≈ 5.35 µM)
MIC Enterococcus faecalis (GC 2242) (Enterococcus sp.; inoculum 5×10^5 CFU/mL, strain GC 2242): 8 µg/mL (≈ 5.35 µM)
MIC Enterococcus faecium (GC 2243) (Enterococcus sp.; inoculum 5×10^5 CFU/mL, strain GC 2243): 4 µg/mL (≈ 2.67 µM)
MIC Enterococcus faecalis (GC 2691) (Enterococcus sp.; inoculum 5×10^5 CFU/mL, strain GC 2691): 16 µg/mL (≈ 10.7 µM)
MIC Enterococcus faecalis (GC 3059) (Enterococcus sp.; inoculum 5×10^5 CFU/mL, strain GC 3059): 16 µg/mL (≈ 10.7 µM)
MIC Enterococcus faecalis (GC 4552) (Enterococcus sp.; inoculum 5×10^5 CFU/mL, strain GC 4552): 8 µg/mL (≈ 5.35 µM)
MIC Enterococcus faecalis (GC 4553) (Enterococcus sp.; inoculum 5×10^5 CFU/mL, strain GC 4553): 4 µg/mL (≈ 2.67 µM)
MIC Enterococcus faecalis (GC 4554) (Enterococcus sp.; inoculum 5×10^5 CFU/mL, strain GC 4554): 16 µg/mL (≈ 10.7 µM)
MIC Enterococcus faecium (GC 4556) (Enterococcus sp.; inoculum 5×10^5 CFU/mL, strain GC 4556): 8 µg/mL (≈ 5.35 µM)
MIC Enterococcus faecium (GC 4557) (Enterococcus sp.; inoculum 5×10^5 CFU/mL, strain GC 4557): 1 µg/mL (≈ 0.669 µM)
MIC Enterococcus avium (GC 4558) (Enterococcus sp.; inoculum 5×10^5 CFU/mL, strain GC 4558): 4 µg/mL (≈ 2.67 µM)
MIC Enterococcus faecalis (GC 6189) (Enterococcus sp.; inoculum 5×10^5 CFU/mL, strain GC 6189): 16 µg/mL (≈ 10.7 µM)
MIC Staphylococcus aureus (ATCC 29213) (Staphylococcus sp.): 4 µg/mL (≈ 2.67 µM)
MIC Staphylococcus aureus (GC 1131) (Staphylococcus sp.): 8 µg/mL (≈ 5.35 µM)
MIC Staphylococcus aureus (GC 3051) (Staphylococcus sp.): 4 µg/mL (≈ 2.67 µM)
MIC Staphylococcus aureus (GC 3053) (Staphylococcus sp.): 8 µg/mL (≈ 5.35 µM)
MIC Staphylococcus aureus (GC 4541) (Staphylococcus sp.): 4 µg/mL (≈ 2.67 µM)
MIC Staphylococcus aureus (GC 4542) (Staphylococcus sp.): 8 µg/mL (≈ 5.35 µM)
MIC Staphylococcus aureus-SMITH (GC 4543) (Staphylococcus sp.): 4 µg/mL (≈ 2.67 µM)
MIC Staphylococcus aureus (GC 4544) (Staphylococcus sp.): 8 µg/mL (≈ 5.35 µM)
MIC Staphylococcus aureus (GC 4545) (Staphylococcus sp.): 4 µg/mL (≈ 2.67 µM)
MIC Staphylococcus haemolyticus (GC 4546) (Staphylococcus sp.): 4 µg/mL (≈ 2.67 µM)
MIC Coagulase Negative Staphylococcus (GC 4547) (Staphylococcus sp.): 4 µg/mL (≈ 2.67 µM)
MIC Coagulase Negative Staphylococcus (GC 4548) (Staphylococcus sp.): 2 µg/mL (≈ 1.34 µM)
MIC Coagulase Negative Staphylococcus (GC 4549) (Staphylococcus sp.): 2 µg/mL (≈ 1.34 µM)
MIC Coagulase Negative Staphylococcus (GC 4551) (Staphylococcus sp.): 4 µg/mL (≈ 2.67 µM)
MIC Streptococcus agalactiae (GC 4564) (Streptococcus sp.): 0.5 µg/mL (≈ 0.334 µM)
MIC Streptococcus pneumoniae (ATCC 6301) (Streptococcus sp.): 0.5 µg/mL (≈ 0.334 µM)
MIC Streptococcus pneumoniae (GC 1894) (Streptococcus sp.): <0.12 µg/mL
MIC Streptococcus pneumoniae (GC 4565) (Streptococcus sp.): 1 µg/mL (≈ 0.669 µM)
MIC Streptococcus pyogenes (GC 4563) (Streptococcus sp.): 0.5 µg/mL (≈ 0.334 µM)
MIC Streptococcus pneumoniae (ATCC 6301) (Streptococcus sp.; inoculum 5×10^5 CFU/mL, strain ATCC 6301): 0.5 µg/mL (≈ 0.334 µM)
MIC Streptococcus pneumoniae (GC 1894) (Streptococcus sp.; inoculum 5×10^5 CFU/mL, strain GC 1894): <0.12 µg/mL
MIC Streptococcus pyogenes (GC 4563) (Streptococcus sp.; inoculum 5×10^5 CFU/mL, strain GC 4563): 0.5 µg/mL (≈ 0.334 µM)
MIC Streptococcus agalactiae (GC 4564) (Streptococcus sp.; inoculum 5×10^5 CFU/mL, strain GC 4564): 0.5 µg/mL (≈ 0.334 µM)
MIC Streptococcus pneumoniae (GC 4565) (Streptococcus sp.; inoculum 5×10^5 CFU/mL, strain GC 4565): 1 µg/mL (≈ 0.669 µM)
MIC Escherichia coli (ATCC 25922) (Escherichia coli): 128 µg/mL (≈ 85.6 µM)
MIC Escherichia coli (GC 4559) (Escherichia coli): 128 µg/mL (≈ 85.6 µM)
MIC Escherichia coli (GC 4560) (Escherichia coli): 4 µg/mL (≈ 2.67 µM)

CC(C)C(=O)Nc1cc(CC2NC(=O)C(C(C)c3ccccc3)NC(=O)CNC(=O)C(CO)NC(=O)C(C(O)C3CNC(=N)N3C3OC(CO)C(O)C(O)C3O)NC(=O)C(C(O)C3CNC(=N)N3)NC2=O)ccc1O (stereo not drawn) [Example 15, Cyclo[glycyl-β-methylphenylalanyl-3-(2-methylpropanamido)tyrosyl-3-(2-iminoimidazolidin-4-yl)seryl-3-(3-hexopyranosyl-2-iminoimidazolidin-4-yl)serylseryl]]
MIC Enterococcus faecalis (ATCC 29212) (Enterococcus sp.; strain ATCC 29212): >128 µg/mL
MIC Enterococcus faecalis (GC 2242) (Enterococcus sp.; strain GC 2242): >128 µg/mL
MIC Enterococcus faecium (GC 2243) (Enterococcus sp.; strain GC 2243): >128 µg/mL
MIC Enterococcus faecalis (GC 2691) (Enterococcus sp.; strain GC 2691): >128 µg/mL
MIC Enterococcus faecalis (GC 3059) (Enterococcus sp.; strain GC 3059): >128 µg/mL
MIC Enterococcus faecalis (GC 4552) (Enterococcus sp.; strain GC 4552): >128 µg/mL
MIC Enterococcus faecalis (GC 4553) (Enterococcus sp.; strain GC 4553): >128 µg/mL
MIC Enterococcus faecalis (GC 4554) (Enterococcus sp.; strain GC 4554): >128 µg/mL
MIC Enterococcus faecium (GC 4556) (Enterococcus sp.; strain GC 4556): >128 µg/mL
MIC Enterococcus faecium (GC 4557) (Enterococcus sp.; strain GC 4557): >128 µg/mL
MIC Enterococcus avium (GC 4558) (Enterococcus sp.; strain GC 4558): 128 µg/mL (≈ 121 µM)
MIC Enterococcus faecalis (GC 6189) (Enterococcus sp.; strain GC 6189): >128 µg/mL
MIC Staphylococcus aureus (ATCC 29213) (Staphylococcus sp.): >128 µg/mL
MIC Staphylococcus aureus (GC 1131) (Staphylococcus sp.): >128 µg/mL
MIC Staphylococcus aureus (GC 3051) (Staphylococcus sp.): >128 µg/mL
MIC Staphylococcus aureus (GC 3053) (Staphylococcus sp.): >128 µg/mL
MIC Staphylococcus aureus (GC 4541) (Staphylococcus sp.): >128 µg/mL
MIC Staphylococcus aureus (GC 4542) (Staphylococcus sp.): >128 µg/mL
MIC Staphylococcus aureus-SMITH (GC 4543) (Staphylococcus sp.): >128 µg/mL
MIC Staphylococcus aureus (GC 4544) (Staphylococcus sp.): >128 µg/mL
MIC Staphylococcus aureus (GC 4545) (Staphylococcus sp.): >128 µg/mL
MIC Staphylococcus haemolyticus (GC 4546) (Staphylococcus sp.): >128 µg/mL
MIC Coagulase Negative Staphylococcus (GC 4547) (Staphylococcus sp.): >128 µg/mL
MIC Coagulase Negative Staphylococcus (GC 4548) (Staphylococcus sp.): >128 µg/mL
MIC Coagulase Negative Staphylococcus (GC 4549) (Staphylococcus sp.): >128 µg/mL
MIC Coagulase Negative Staphylococcus (GC 4551) (Staphylococcus sp.): >128 µg/mL
MIC Coagulase Negative Staphylococcus (GC 6257) (Staphylococcus sp.; strain GC 6257): >128 µg/mL
MIC Streptococcus pneumoniae (ATCC 6301) (Streptococcus sp.; strain ATCC 6301): >128 µg/mL
MIC Streptococcus pneumoniae (GC 1894) (Streptococcus sp.; strain GC 1894): 128 µg/mL (≈ 121 µM)
MIC Streptococcus pyogenes (GC 4563) (Streptococcus sp.; strain GC 4563): >128 µg/mL
MIC Streptococcus agalactiae (GC 4564) (Streptococcus sp.; strain GC 4564): 128 µg/mL (≈ 121 µM)
MIC Streptococcus pneumoniae (GC 4565) (Streptococcus sp.; strain GC 4565): 64 µg/mL (≈ 60.6 µM)
MIC Escherichia coli (ATCC 25922) (Escherichia coli; strain ATCC 25922, broth dilution): >128 µg/mL
MIC Escherichia coli (GC 4559) (Escherichia coli; strain GC 4559, broth dilution): >128 µg/mL
MIC Escherichia coli (GC 4560) (Escherichia coli; strain GC 4560, broth dilution): 128 µg/mL (≈ 121 µM)
